Results published in paper PMC9231011, “Irreversible Antagonists for the Adenosine A2B Receptor” (Molecules, 2022).
Substitutions are numbered along the chain they refer to.

What was measured:
hA3 = target: hA3; parameters: method as in PMID 30835463, PMID 31646479; conditions: Figure 1; cited from earlier work
hA2A = target: hA2A; parameters: method as in PMID 30835463, PMID 31646479; conditions: Figure 1; cited from earlier work
hA2B = target: hA2B; parameters: method as in PMID 30835463, PMID 31646479; conditions: Figure 1; cited from earlier work
hA1 = target: hA1; parameters: method as in PMID 30835463, PMID 31646479; conditions: Figure 1; cited from earlier work
A2BAR = target: T1, A2BAR (Homo sapiens, UniProt P29275); parameters: purchased Perkin Elmer ES-013-M400UA; method as in PMID 19569717; conditions: wt A2BAR; read-out: KD of [3H]PSB-603; cited from earlier work
T1 sequence (P29275 1-332): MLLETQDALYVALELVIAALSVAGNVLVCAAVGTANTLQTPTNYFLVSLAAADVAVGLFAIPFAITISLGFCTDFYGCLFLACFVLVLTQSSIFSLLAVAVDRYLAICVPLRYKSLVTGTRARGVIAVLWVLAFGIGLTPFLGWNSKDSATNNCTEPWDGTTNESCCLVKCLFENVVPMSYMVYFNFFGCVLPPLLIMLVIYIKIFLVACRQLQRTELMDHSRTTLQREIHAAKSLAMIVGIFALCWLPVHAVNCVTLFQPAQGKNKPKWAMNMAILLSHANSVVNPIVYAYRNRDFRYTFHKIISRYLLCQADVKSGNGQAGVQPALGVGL

[1] = target: T2, mutant human A2BAR (K269^7.32L) (Homo sapiens, UniProt P29275, K269L); assay: Homologous competition binding of PSB-603 vs [3H]PSB-603 at mutant; conditions: K269^7.32L mutant
T2 construct: expressed in transfected cells; host or cells: FreeStyle CHO-S cells, pcDNA3.1(+), transient
T2 sequence (P29275 1-332 K269L): T1 sequence (P29275 1-332) with K269L
Experimental: The human A2AAR, the mutant human A2BAR (K269^7.32L), and the human A3AR were transiently expressed in FreeStyle^TM CHO-S cells using the transfection reagent polyethylenimine (PEI) at a ratio of 1:3 to DNA according to the manufacturer’s guideline. pcDNA3.1(+) was used as the transfection vector containing the cDNA for either the wt ARs or the K269^7.32L mutant A2BAR that was prepared by site-directed mutagenesis with the following primer: forward […], reverse […]. CHO-S cells were grown in FreeStyle^TM CHO Expression Medium supplemented with 8 mM L-glutamine before use and split to 0.5 mio. cells per mL the day before transfection. Twenty-four hours after transfection, cells were spun down by centrifugation for 15 min at 500× g. […]
Binding experiments were performed using 50 mM Tris buffer (pH 7.4) in a total volume of 400 µL for the A1AR, A2AAR, A3AR, and 1000 µL for the A2BAR. […] Non-specific binding was determined in the presence of 10 µM of 2-chloroadenosine, 10 µM of CGS 15943, 10 µM of 8-cyclopently-1,3-dipropylxanthine or 100 µM of (R)-N^6-phenylisopropyadenosine for A1-, A2A-, A2B- and A3ARs, respectively. […] Subsequently, radioactivity was determined using a liquid scintillation counter (Tricarb 2810TR, Perkin Elmer).

In the case of `CCn1c(=O)c2c(nc(/C=C/c3ccc(OC)c(OC)c3)n2C)n(CC)c1=O` [Istradefylline, istradefylline], the Ki (hA3) is listed as 4470 nM, the Ki (hA2A) is listed as 26.4 nM and the Ki (hA2B) is listed as > 10000 nM. The Ki (hA1) was 841 nM.

In the case of `CCCn1c(=O)[nH]c2nc(-c3ccc(S(=O)(=O)N4CCN(c5ccc(Cl)cc5)CC4)cc3)[nH]c2c1=O` [PSB-603], the Ki (hA3) is given as > 10000 nM, the Ki (hA2A) is given as > 10000 nM and the Ki (hA2B) is given as 0.553 nM. The Kd (A2BAR) was 0.553 ± 0.103 nM, the Ki (hA1) was > 10000 nM and the “KD of [3H]PSB-603” value [1] was “did not alter”. For the same compound, the Kd [1] was 0.292 ± 0.034 nM.

In the case of `CCCn1c(=O)[nH]c2nc(-c3ccc(S(=O)(=O)N4CCN(c5ccc(Br)cc5)CC4)cc3)[nH]c2c1=O` [PSB-1901], the Ki (hA3) is given as > 1000 nM, the Ki (hA2A) is given as > 1000 nM and the Ki (hA2B) is given as 0.0835 nM. For the same compound, the Ki (hA1) was > 1000 nM.
